From the supplement of paper PMC11208160

Test: recombinant barcode read abundance after kanamycin selection (control-corrected) (log10(CPM+1)); higher = more efficient recombination; sequences stand for … in AGTGCAGAGAAAATCGGCCAGTTTTCTCTGCCTGCAGTCCGCATGCCGT…ATTTATGCAGCGGACTGCCTTTCTCCCAAAGTGATAAACCGGACAGTATCATGGACCGGTTTTCCCGGTAATCCGTATTTGCAAGGTTGGTTTCACT; site = the 11-nt target
Method in brief: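 A vector carrying a T7-inducible recombinase and the last 73 bp of the bridge RNA received, by Gibson cloning, oligos encoding a promoter, target, barcode and the first 104 bridge RNA bases under J23119. The pooled constructs entered E. coli together with a donor plasmid by electroporation. Selection used chloramphenicol/ampicillin/kanamycin with 0.1 mM IPTG, with chloramphenicol/ampicillin LB agar as the control, each in two replicates. Recombination efficiency is the averaged, control-corrected counts-per-million of barcodes at recombinant junctions, reported as log10(CPM+1).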

Going from “TAAGAATCTTGGGTTCTAACCTGTTGCCTCT [TAAGAATCTAG_LTGcore_CT_RTGcore_AG] (site TAAGAATCTAG) (LTG core: CT, RTG core: AG)” to “TAAGAATCTTGGGTTCTAACCTGTTGCCTGA [TAAGAATCTAG_LTGcore_CT_RTGcore_TC] (site TAAGAATCTAG) (LTG core: CT, RTG core: TC)”, the “recombinant barcode read abundance (log10)” value falls from 0.422 to 0.145.

First: TAAGAATCTTGGGTTCTAACCTGTTGCCTTT [TAAGAATCTAG_LTGcore_CT_RTGcore_AA] (site TAAGAATCTAG) (LTG core: CT, RTG core: AA)
Second: TAGAGGGAATGGGTTCTAACCTGTTGCGGTT [TAGAGGGCTCC_LTGcore_AA_RTGcore_AA] (site TAGAGGGCTCC) (LTG core: AA, RTG core: AA)
The “recombinant barcode read abundance (log10)” value of the first is higher: 0.421 for the first, 0.0221 for the second.

“TAGAGGGACTGGGTTCTAACCTGTTGCGGGT [TAGAGGGCTCC_LTGcore_AC_RTGcore_AC] (site TAGAGGGCTCC) (LTG core: AC, RTG core: AC)” and “TAGAGGGCATGGGTTCTAACCTGTTGCGGTG [TAGAGGGCTCC_LTGcore_CA_RTGcore_CA] (site TAGAGGGCTCC) (LTG core: CA, RTG core: CA)” are within 0.2 log units of each other in “recombinant barcode read abundance (log10)” value: 0.247 for the first, 0.23 for the second.

Going from “TAGAGGGCTTGGGTTCTAACCTGTTGCGGAG [TAGAGGGCTCC_LTGcore_CT_RTGcore_CT] (site TAGAGGGCTCC) (LTG core: CT, RTG core: CT)” to “TAGAGGGCTTGGGTTCTAACCTGTTGCGGCC [TAGAGGGCTCC_LTGcore_CT_RTGcore_GG] (site TAGAGGGCTCC) (LTG core: CT, RTG core: GG)”, the “recombinant barcode read abundance (log10)” value falls from 2.86 to 0.0898.

Compared with “TAGAGGGCTTGGGTTCTAACCTGTTGCGGGA [TAGAGGGCTCC_LTGcore_CT_RTGcore_TC] (site TAGAGGGCTCC) (LTG core: CT, RTG core: TC)”, “TAGAGGGCTTGGGTTCTAACCTGTTGCGGGT [TAGAGGGCTCC_LTGcore_CT_RTGcore_AC] (site TAGAGGGCTCC) (LTG core: CT, RTG core: AC)” is lower in “recombinant barcode read abundance (log10)” value: 0.378 for the first, 0.122 for the second.

“TAGAGGGCTTGGGTTCTAACCTGTTGCGGTC [TAGAGGGCTCC_LTGcore_CT_RTGcore_GA] (site TAGAGGGCTCC) (LTG core: CT, RTG core: GA)” and “TAGAGGGCTTGGGTTCTAACCTGTTGCGGTT [TAGAGGGCTCC_LTGcore_CT_RTGcore_AA] (site TAGAGGGCTCC) (LTG core: CT, RTG core: AA)” are within 0.2 log units of each other in “recombinant barcode read abundance (log10)” value: 0.158 for the first, 0.0916 for the second.

Compared with “TAGAGGGGATGGGTTCTAACCTGTTGCGGAG [TAGAGGGCTCC_LTGcore_GA_RTGcore_CT] (site TAGAGGGCTCC) (LTG core: GA, RTG core: CT)”, “TCGCGACCATGGGTTCTAACCTGTTGCCGAG [TCGCGACCTCG_LTGcore_CA_RTGcore_CT] (site TCGCGACCTCG) (LTG core: CA, RTG core: CT)” is lower in “recombinant barcode read abundance (log10)” value: 0.441 for the first, 0.0739 for the second.

“TCGCGACCTTGGGTTCTAACCTGTTGCCGCG [TCGCGACCTCG_LTGcore_CT_RTGcore_CG] (site TCGCGACCTCG) (LTG core: CT, RTG core: CG)” and “TCGCGACCTTGGGTTCTAACCTGTTGCCGGA [TCGCGACCTCG_LTGcore_CT_RTGcore_TC] (site TCGCGACCTCG) (LTG core: CT, RTG core: TC)” are within 0.2 log units of each other in “recombinant barcode read abundance (log10)” value: 0.436 for the first, 0.26 for the second.

“TCGCGACCTTGGGTTCTAACCTGTTGCCGTA [TCGCGACCTCG_LTGcore_CT_RTGcore_TA] (site TCGCGACCTCG) (LTG core: CT, RTG core: TA)” and “TCGCGACTCTGGGTTCTAACCTGTTGCCGAG [TCGCGACCTCG_LTGcore_TC_RTGcore_CT] (site TCGCGACCTCG) (LTG core: TC, RTG core: CT)” are within 0.2 log units of each other in “recombinant barcode read abundance (log10)” value: 0.0883 for the first, 0.0502 for the second.

“TCGCGACTCTGGGTTCTAACCTGTTGCCGGA [TCGCGACCTCG_LTGcore_TC_RTGcore_TC] (site TCGCGACCTCG) (LTG core: TC, RTG core: TC)” and “TCGCGACTTTGGGTTCTAACCTGTTGCCGAA [TCGCGACCTCG_LTGcore_TT_RTGcore_TT] (site TCGCGACCTCG) (LTG core: TT, RTG core: TT)” are within 0.2 log units of each other in “recombinant barcode read abundance (log10)” value: 0.0969 for the first, 0 for the second.

“TCTACCCAATGGGTTCTAACCTGTTGCTGAG [TCTACCCCTCA_LTGcore_AA_RTGcore_CT] (site TCTACCCCTCA) (LTG core: AA, RTG core: CT)” and “TCTACCCACTGGGTTCTAACCTGTTGCTGAG [TCTACCCCTCA_LTGcore_AC_RTGcore_CT] (site TCTACCCCTCA) (LTG core: AC, RTG core: CT)” are within 0.2 log units of each other in “recombinant barcode read abundance (log10)” value: 0.0508 for the first, 0.0555 for the second.

Going from “TCTACCCAGTGGGTTCTAACCTGTTGCTGAG [TCTACCCCTCA_LTGcore_AG_RTGcore_CT] (site TCTACCCCTCA) (LTG core: AG, RTG core: CT)” to “TCTACCCCATGGGTTCTAACCTGTTGCTGAG [TCTACCCCTCA_LTGcore_CA_RTGcore_CT] (site TCTACCCCTCA) (LTG core: CA, RTG core: CT)”, the “recombinant barcode read abundance (log10)” value rises from 0.467 to 0.806.

“TCTACCCCTTGGGTTCTAACCTGTTGCTGCC [TCTACCCCTCA_LTGcore_CT_RTGcore_GG] (site TCTACCCCTCA) (LTG core: CT, RTG core: GG)” and “TCTACCCGATGGGTTCTAACCTGTTGCTGAG [TCTACCCCTCA_LTGcore_GA_RTGcore_CT] (site TCTACCCCTCA) (LTG core: GA, RTG core: CT)” are within 0.2 log units of each other in “recombinant barcode read abundance (log10)” value: 0.0951 for the first, 0.208 for the second.

“TCTACCCGGTGGGTTCTAACCTGTTGCTGCC [TCTACCCCTCA_LTGcore_GG_RTGcore_GG] (site TCTACCCCTCA) (LTG core: GG, RTG core: GG)” and “TCTACCCTCTGGGTTCTAACCTGTTGCTGAG [TCTACCCCTCA_LTGcore_TC_RTGcore_CT] (site TCTACCCCTCA) (LTG core: TC, RTG core: CT)” are within 0.2 log units of each other in “recombinant barcode read abundance (log10)” value: 0.108 for the first, 0.0968 for the second.

“TCTACCCTCTGGGTTCTAACCTGTTGCTGGA [TCTACCCCTCA_LTGcore_TC_RTGcore_TC] (site TCTACCCCTCA) (LTG core: TC, RTG core: TC)” and “TGATACCACTGGGTTCTAACCTGTTGCGTGT [TGATACCCTAC_LTGcore_AC_RTGcore_AC] (site TGATACCCTAC) (LTG core: AC, RTG core: AC)” are within 0.2 log units of each other in “recombinant barcode read abundance (log10)” value: 0.032 for the first, 0.136 for the second.

Going from “TGATACCCATGGGTTCTAACCTGTTGCGTAG [TGATACCCTAC_LTGcore_CA_RTGcore_CT] (site TGATACCCTAC) (LTG core: CA, RTG core: CT)” to “TGATACCCCTGGGTTCTAACCTGTTGCGTAG [TGATACCCTAC_LTGcore_CC_RTGcore_CT] (site TGATACCCTAC) (LTG core: CC, RTG core: CT)”, the “recombinant barcode read abundance (log10)” value rises from 0.328 to 0.566.

First: TGATACCCTTGGGTTCTAACCTGTTGCGTAA [TGATACCCTAC_LTGcore_CT_RTGcore_TT] (site TGATACCCTAC) (LTG core: CT, RTG core: TT)
Second: TGATACCCTTGGGTTCTAACCTGTTGCGTAT [TGATACCCTAC_LTGcore_CT_RTGcore_AT] (site TGATACCCTAC) (LTG core: CT, RTG core: AT)
The “recombinant barcode read abundance (log10)” value of the first is higher: 0.882 for the first, 0.624 for the second.

“TGATACCTATGGGTTCTAACCTGTTGCGTAG [TGATACCCTAC_LTGcore_TA_RTGcore_CT] (site TGATACCCTAC) (LTG core: TA, RTG core: CT)” and “TGATACCTATGGGTTCTAACCTGTTGCGTTA [TGATACCCTAC_LTGcore_TA_RTGcore_TA] (site TGATACCCTAC) (LTG core: TA, RTG core: TA)” are within 0.2 log units of each other in “recombinant barcode read abundance (log10)” value: 0.0864 for the first, 0.0463 for the second.

“TGATACCTCTGGGTTCTAACCTGTTGCGTGA [TGATACCCTAC_LTGcore_TC_RTGcore_TC] (site TGATACCCTAC) (LTG core: TC, RTG core: TC)” and “TGATACCTTTGGGTTCTAACCTGTTGCGTAA [TGATACCCTAC_LTGcore_TT_RTGcore_TT] (site TGATACCCTAC) (LTG core: TT, RTG core: TT)” are within 0.2 log units of each other in “recombinant barcode read abundance (log10)” value: 0.0566 for the first, 0.0482 for the second.

“TGTATTCAATGGGTTCTAACCTGTTGCCTAG [TGTATTCCTAG_LTGcore_AA_RTGcore_CT] (site TGTATTCCTAG) (LTG core: AA, RTG core: CT)” and “TGTATTCAATGGGTTCTAACCTGTTGCCTTT [TGTATTCCTAG_LTGcore_AA_RTGcore_AA] (site TGTATTCCTAG) (LTG core: AA, RTG core: AA)” are within 0.2 log units of each other in “recombinant barcode read abundance (log10)” value: 0.0633 for the first, 0.0627 for the second.

“TGTATTCCCTGGGTTCTAACCTGTTGCCTAG [TGTATTCCTAG_LTGcore_CC_RTGcore_CT] (site TGTATTCCTAG) (LTG core: CC, RTG core: CT)” and “TGTATTCCTTGGGTTCTAACCTGTTGCCTCG [TGTATTCCTAG_LTGcore_CT_RTGcore_CG] (site TGTATTCCTAG) (LTG core: CT, RTG core: CG)” are within 0.2 log units of each other in “recombinant barcode read abundance (log10)” value: 0.168 for the first, 0.161 for the second.

“TGTATTCCTTGGGTTCTAACCTGTTGCCTGA [TGTATTCCTAG_LTGcore_CT_RTGcore_TC] (site TGTATTCCTAG) (LTG core: CT, RTG core: TC)” and “TGTATTCCTTGGGTTCTAACCTGTTGCCTTC [TGTATTCCTAG_LTGcore_CT_RTGcore_GA] (site TGTATTCCTAG) (LTG core: CT, RTG core: GA)” are within 0.2 log units of each other in “recombinant barcode read abundance (log10)” value: 0.0266 for the first, 0.0942 for the second.

In the case of “TGTATTCGCTGGGTTCTAACCTGTTGCCTGC [TGTATTCCTAG_LTGcore_GC_RTGcore_GC] (site TGTATTCCTAG) (LTG core: GC, RTG core: GC)”, the “recombinant barcode read abundance (log10)” value is reported as 0.312.
